This is an account of results in article PMC7947795, “Rapamycin-Loaded Lipid Nanocapsules Induce Selective Inhibition of the mTORC1-Signaling Pathway in Glioblastoma Cells” (Frontiers in Bioengineering and Biotechnology, 2021).

For data set [1], the system named is phosphorylation of Akt on Ser473. Briefly: Western blot Akt-p. The following applies: U87MG, 1 μM, 21 and 0.4% O2, 0Gy. The data set is classed as cell-based, Human. The procedure: (§1) U87MG cells (2.4 × 10^5 cells/mL) harvested in the exponential growth phase were seeded in dishes in DMEM medium with 10% FBS, at 37°C in humidified atmosphere containing 5% CO2 and 21 or 0.4% O2. Once the cells incubated in the exponential growth phase, serum-contained medium was removed and replaced by serum-deprived DMEM supplemented with 1% N1 supplement. […] 8Gy radiation was performed 6 h after the treatment by Faxitron CP-160 (cf. section Irradiation Procedure).
(§2) Cells were scrapped and lysed by sonication for 10 s.
(§3) Equal amounts of protein from each sample, estimated by the Bio-Rad Protein Assay (Richmond, CA), were separated by electrophoresis through a 4–20% SDS-polyacrylamide gel (Mini-protean® TGX™ Ge, BioRad), transferred to PVDF membranes (AmershamHybond, GE Healthcare, Buckinghamshire, UK) and blocked with 4% non-fat dry milk in 1X TBS plus 0.1% Tween 20 at RT for 1 h. The membranes were washed and incubated with a primary antibody diluted in 2% BSA in 1X TBS plus 0.1% Tween 20 overnight at 4°C. The membranes were then washed and incubated again for 1 h at RT with peroxidase-conjugated anti-rabbit or anti-mouse secondary antibody. The bound antibody was detected using the enhanced chemiluminescence reagent kit SuperSignal West Femto (Thermo Scientific, Waltham, MA, USA) and read with a bioluminescence detector Image Quant Las 4000 (GE Healthcare, USA).
(In general: A western blot detects proteins with antibodies after separation by electrophoresis.)

Data set [2] in a line: Spectral analysis of rapamycin stability in Labrafac. It is filed as physicochemical. The conditions noted are these: short cycles of heating and cooling at 70°C. An excerpt: Spectral analysis was then made by use of the CLARIOstar microplate reader (BMG Labtech, Champigny-sur-Marne, France).
Data set [3] relates to U87MG cells. Nature of the data set: MTS cytotoxicity assay. The data set is classed as cell-based. The following applies: Homo sapiens, U-87 MG, serum-free medium, 4 h treatment, read at 48 h. The procedure:
Two assays were performed to determine the cytotoxicity effect of LNC-rapa on the glioblastoma cell line U87MG:MTS (3-(4,5-dimethylthiazol-2-yl)-5-(3-carboxymethoxyphenyl)-2-(4-sulfophenyl)-2H-tetrazolium) (Promega, Charbonnières, France) and clonogenic assay by crystal violet coloration (Sigma-Aldrich).
For the MTS assay, U87MG cells (5 × 10^4 cells/mL) harvested in the exponential growth phase were seeded in a 24-well plate in DMEM medium with 10% FBS, in humidified atmosphere (5% CO2) at 37°C. Once the cells incubated in the exponential growth phase, serum-contained medium was removed and replaced by serum-deprived DMEM supplemented with 1% N1 supplement (Sigma-Aldrich). […] 8Gy radiation was performed 6 h after the onset of initial treatment by Faxitron CP-160 (Faxitron X-rays, Lincolnshire, UK). Medium was changed every day. Forty-eight hours following the treatment, MTS reagent was diluted (1:5) in U87MG cell medium and incubated for 2 h at 37°C. The absorbance was measured at 492 nm using Multiskan® microplate spectrophotometer (Thermo Scientific).
Depending on the condition considered, the cells were placed throughout the experiment in a conventional 21% O2 incubator at 37°C/5% CO2 (normoxia) or 0.4% O2 (hypoxia) at 37°C/5% CO2 in an InVivO2 400 SCI-tive hypoxia workstation (Ruskinn); they are only placed in isolated flasks for the duration of the irradiations.
A general note: Tetrazolium assays rely on reduction of a dye to a coloured formazan, in cell work by metabolically active cells.

In data set [4] the test system is 9L cells (rat glioma cells). More on the design: method as in Tyler et al., 2011. The following applies: in vitro, ref Tyler et al., 2011; cited from earlier work.
Data set [5] deals with U87MG cells. Nature of the data set: Clonogenic assay by crystal violet coloration. The data set is classed as cell-based, Human. The conditions noted are these: 1 μM. The protocol:
Irradiation was performed with the CP-160 cabinet x-ray system (Faxitron, Edimex, Le Plessis Grammoire, Angers, France) which delivers a dose of 1,5 grays by min. […] Irradiation was performed with cells covered.
Once the cells incubated in the exponential growth phase, serum-contained medium was removed and replaced by serum-deprived DMEM supplemented with 1 % N1 supplement. […] 8Gy radiation was performed 6 h after the treatment by Faxitron CP-160.

In data set [6] the test system is HIF-1α protein expression. Nature of the data set: Western blot HIF-1α. It is filed as cell-based, Human. The conditions noted are these: U87MG, 1 μM, 21 and 0.4% O2, 0Gy. The protocol:
as §1, §2, §3

In data set [7] the test system is mTOR phosphorylation (Ser2448). Nature of the data set: Western blot p-mTOR/HSC70. The conditions noted are these: U87MG, 1 μM, serum-free medium, 21 and 0.4% O2, 16 h. It is filed as cell-based, Human.
The conditions of data set [8]: no reference given; cited from earlier work.
The nature of data set [9]: Rapamycin solubility assay in oils (RP-HPLC). It is filed as physicochemical. The procedure:
[…] […] The mixture of 90% acetonitrile and 10% water (v/v) was used as a mobile phase, and delivered at a flow rate of 2.0 mL/min. The injection volume was 10 μL and the retention time was about 2.3 min.

As a reminder, the IC50 is the midpoint of a concentration-inhibition curve. Low readings indicate inhibition by little substance, high ones a need for much substance. In general, logP refers to the decadic logarithm of the partition coefficient of the neutral form, usually between octanol and water. As for `CO[C@H]1C[C@@H]2CC[C@@H](C)[C@@](O)(O2)C(=O)C(=O)N2CCCC[C@H]2C(=O)O[C@H]([C@H](C)C[C@@H]2CC[C@@H](O)[C@H](OC)C2)CC(=O)[C@H](C)/C=C(\C)[C@@H](O)[C@@H](OC)C(=O)[C@H](C)C[C@H](C)/C=C/C=C/C=C/1C` [Rapamycin], in data set [1], the “Akt-p protein level (Ser473)” value is recorded as “enhance Akt-p protein level”. Further, the “Stability of rapamycin in Labrafac” value in data set [2] is “confirmed”. The IC50 in data set [3] (0.4% pO2 (hypoxia)) stood at 34.6 µM; in data set [3] (21% pO2 (normoxia)) it was 20.5 µM. In addition, in data set [4], the “concentration causing growth inhibition” value was 0.01 µg/mL. In addition, the “Synergistic effect with radiation treatment (clonogenic assay)” value in data set [5] (8Gy 6 h after treatment, 21 or 0.4% O2) is given as “do not exert any synergistic effect”. For the same compound, in data set [5] (21 or 0.4% O2, 10 days, significant at 0.4% O2), the “Effect on cell survival (clonogenic assay)” value is given as “only moderate effects”. In data set [6], the HIF-1α protein expression result was “reduced”. Besides, the “Inhibition of mTOR phosphorylation (Ser2448)” value in data set [7] is “strong inhibition of mTOR phosphorylation”. The logP in [8] is 4.3. In addition, the “Degradation at 90°C in oil” value in [9] (90°C, 3 h, whatever the oil used) is “completely degraded”. Besides, the Dissolution rate in [9] (Captex 8000, 90°C) came to 0%; in data set [9] (Captex 8000, RT) it was 9.5%; in [9] (Labrafac, 90°C) it was 0%; in data set [9] (Labrafac, RT), 6.3%; in data set [9] (Miglyol 812, 90°C) it was 0%; in data set [9] (Miglyol 812, RT), 7.3%. Besides, the Dissolved rapamycin in [9] (Captex 8000, 90°C, initial 16.8 mg/mL) is on record as 0 mg/mL; in [9] (Captex 8000, RT, initial 19.0 mg/mL), 1.8 mg/mL; in data set [9] (Labrafac, 90°C, initial 21.1 mg/mL), 0 mg/mL; in [9] (Labrafac, RT, initial 24.0 mg/mL), 1.5 mg/mL; in [9] (Miglyol 812, 90°C, initial 17.1 mg/mL) it was 0 mg/mL; in data set [9] (Miglyol 812, RT, initial 19.2 mg/mL), 1.4 mg/mL.
